Square brackets hold non-standard residues; d marks the D form. Ends that are not written are not given here. Peptide text beside a SMILES is read from it.
Experiments:
mu-opioid receptor = conditions: result in words; no data shown; cited from earlier work
[1] = test system: transplanted tissue or organ; cyclosporine nephrotoxicity; assay: Peptide with cyclosporine in transplant patients: organ health and nephrotoxicity (Example 7); assay type: in vivo; conditions: subjects who receive the peptide versus those who do not; predicted
Text: To prevent organ or tissue rejection after transplant, patients often receive a regimen of the immunosuppressive drug cyclosporine. Cyclosporine levels are established and maintained in the subject at levels to effectively suppress the immune system. However, nephrotoxicity is a concern for these subjects, and the level of the drug in the subject's blood is monitored carefully. Cyclosporine doses are adjusted accordingly in order to not only prevent rejection, but also to deter these potentially damaging side effects. Typically, an adult transplant patient receives cyclosporine as follows: IV: 2 to 4 mg/kg/day IV infusion once a day over 4 to 6 hours, or 1 to 2 mg/kg IV infusion twice a day over 4 to 6 hours, or 2 to 4 mg/kg/day as a continuous IV infusion over 24 hours. Capsules: 8 to 12 mg/kg/day orally in 2 divided doses. Solution: 8 to 12 mg/kg orally once a day. […]
A therapeutically effective amount of an aromatic-cationic peptide or pharmaceutically acceptable salt thereof such as acetate or trifluoroacetate salt is administered to subjects prior to, during and/or after transplant as show in Table 13 above. Subjects are monitored for health and function of the transplanted tissue or organ, as well as the incidence and severity of nephrotoxicitity often seen with prolonged cyclosporine administration.

[2] = test system: several mammalian cell types; conditions: energy-independent manner; Zhao et al. 2003; cited from earlier work

Row | Compound | mu-opioid receptor agonist activity (mu-opioid receptor) | further results
1 | Tyr-D-Arg-Phe-Lys-NH2 [SS-01] | has mu-opioid receptor agonist activity | –
2 | Cc1cc(O)cc(C)c1C[C@H](NC(=O)[C@H](N)CCCNC(=N)N)C(=O)N[C@@H](CCCCN)C(=O)N[C@@H](Cc1ccccc1)C(N)=O [PEPTIDE, D-Arg-2′6′-Dmt-Lys-Phe-NH2] (HELM PEPTIDE1{[dR].[Cc1cc(O)cc(C)c1C[C@H](N[*:1])C(=O)[*:2]].K.F.[am]}$$$$V2.0) | – | tolerated cyclosporine dosage [1]: able to maintain a higher and/or more consistent cyclosporine dosage for longer periods of time
3 | 2′,6′-Dmt-D-Arg-Phe-Lys-NH2 [SS-02] | – | penetration of the plasma membrane [2]: readily penetrates the plasma membrane
4 | F[dR]FK-NH2 [SS-20] | does not have mu-opioid receptor agonist activity | –
